Results published in article PMC7287671, “Anticancer Ruthenium Complexes with HDAC Isoform Selectivity” (Molecules, 2020).

How the values were obtained:
[1] = biological target: T1, HDAC1 (Homo sapiens, UniProt Q13547); assay: HDAC1 fluorimetric enzyme inhibition assay (BPS Bioscience kit); assay type: biochemical; conditions: for Percentage HDAC1 activity: activity relative to control with no added inhibitor
T1 construct: FLAG; His; purchased BPS Bioscience
Method: (§1) These isoforms were chosen as they provide contrasting binding topographies, and HDAC6 in particular is closely linked with cancer metastasis (Figure 2).
(§2) 5. Enzyme Inhibition Assay
(§3) HDAC enzyme inhibition assays were carried out for as stated using commercially available assay kits (BPS Bioscience ) and undertaken in a 96 well plate. All measurements were carried out in triplicate and standard deviation errors are included in the plots. Human recombinant enzymes HDAC1 FLAG-tag His-tag and HDAC6 GST-tag were used. Potential inhibitors were dosed at the required concentration […]
(§4) NaCl, 2.7 mM KCl, 1 mM MgCl 2). A master mixture was made using assay buffer, acetylated substrate specific to HDAC enzyme (200 µM) and BSA (1 mg/mL) in a ratio of buffer:substrate:BSA (6:1:1) and 40 µL added to each well plate. Buffer (10 µL) was added to all blank wells and inhibitor (5 µL) was added to all potential inhibitor wells. HDAC enzymes were diluted based on their stated activity and 5 µL was added to all wells except blanks and the plate incubated at 37 °C for 30 min. Developer was added and the mixture incubated at room temperature for a further 15 min. Fluorescence was measured […]
(§5) Percentage HDAC activity is […]
(§6) determined by quantification of fluorescence relative to control, with no added inhibitor.
(§7) IC 50 values are calculated using least squares regression fitting to equation S2, where Y = calculated HDAC activity at given concentration, X = concentration of inhibitor, a = gradient scaling factor and SP = saturation point (i.e. 100% activity). Errors calculated using the formula for standard […]
(§8) Y = ୣ୶୮ (௔×(௑ିூ ఱబ)) × SP (S2)
(§9) All assays carried out in […]

[2] = system: MCF7 human breast adenocarcinoma cell line; assay: Cell viability assay (ChemoMetec Via1-Cassette); assay type: cell-based; conditions: MCF7, 96 h, triplicate
Method: viable cells. The experiments were carried out in triplicate.

[3] = biological target: T2, HDAC6 (Homo sapiens, UniProt Q9UBN7); assay: HDAC6 fluorimetric enzyme inhibition assay (BPS Bioscience kit); assay type: biochemical; conditions: for Percentage HDAC6 activity: activity relative to control with no added inhibitor
T2 construct: GST; purchased BPS Bioscience
T2 sequence (Q9UBN7 1-1215): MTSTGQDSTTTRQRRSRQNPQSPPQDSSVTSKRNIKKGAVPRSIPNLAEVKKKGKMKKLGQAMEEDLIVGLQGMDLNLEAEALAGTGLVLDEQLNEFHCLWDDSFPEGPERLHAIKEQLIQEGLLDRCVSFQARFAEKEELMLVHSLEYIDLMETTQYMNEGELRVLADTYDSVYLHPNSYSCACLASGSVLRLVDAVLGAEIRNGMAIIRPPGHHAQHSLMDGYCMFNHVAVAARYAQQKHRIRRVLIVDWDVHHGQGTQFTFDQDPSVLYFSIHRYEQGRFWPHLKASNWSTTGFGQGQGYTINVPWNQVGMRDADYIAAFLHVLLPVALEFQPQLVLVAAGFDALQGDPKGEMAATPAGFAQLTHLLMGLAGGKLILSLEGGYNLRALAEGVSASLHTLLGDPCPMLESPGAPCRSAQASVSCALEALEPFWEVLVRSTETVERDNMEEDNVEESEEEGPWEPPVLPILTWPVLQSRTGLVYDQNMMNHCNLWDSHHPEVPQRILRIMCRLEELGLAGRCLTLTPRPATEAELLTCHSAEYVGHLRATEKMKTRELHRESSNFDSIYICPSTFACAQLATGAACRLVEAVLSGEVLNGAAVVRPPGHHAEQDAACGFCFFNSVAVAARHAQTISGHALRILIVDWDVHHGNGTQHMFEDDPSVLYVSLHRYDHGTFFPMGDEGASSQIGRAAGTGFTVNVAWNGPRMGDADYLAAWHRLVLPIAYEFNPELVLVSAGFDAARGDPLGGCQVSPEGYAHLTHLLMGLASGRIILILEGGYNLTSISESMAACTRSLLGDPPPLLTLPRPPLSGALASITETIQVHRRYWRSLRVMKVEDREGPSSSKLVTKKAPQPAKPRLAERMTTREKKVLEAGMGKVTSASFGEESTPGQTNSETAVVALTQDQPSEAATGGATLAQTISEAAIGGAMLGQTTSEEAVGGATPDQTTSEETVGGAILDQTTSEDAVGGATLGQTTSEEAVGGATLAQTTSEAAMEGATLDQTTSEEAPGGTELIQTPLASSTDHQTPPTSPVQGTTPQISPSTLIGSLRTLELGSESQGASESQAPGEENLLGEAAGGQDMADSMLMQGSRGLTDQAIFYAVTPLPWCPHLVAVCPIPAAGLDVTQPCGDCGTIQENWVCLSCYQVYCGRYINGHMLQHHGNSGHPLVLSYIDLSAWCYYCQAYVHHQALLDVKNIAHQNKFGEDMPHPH
Method: as §1, §2, §3, §4, §5, §6, §7, §8, §9

T1 sequence (Q13547 whole entry): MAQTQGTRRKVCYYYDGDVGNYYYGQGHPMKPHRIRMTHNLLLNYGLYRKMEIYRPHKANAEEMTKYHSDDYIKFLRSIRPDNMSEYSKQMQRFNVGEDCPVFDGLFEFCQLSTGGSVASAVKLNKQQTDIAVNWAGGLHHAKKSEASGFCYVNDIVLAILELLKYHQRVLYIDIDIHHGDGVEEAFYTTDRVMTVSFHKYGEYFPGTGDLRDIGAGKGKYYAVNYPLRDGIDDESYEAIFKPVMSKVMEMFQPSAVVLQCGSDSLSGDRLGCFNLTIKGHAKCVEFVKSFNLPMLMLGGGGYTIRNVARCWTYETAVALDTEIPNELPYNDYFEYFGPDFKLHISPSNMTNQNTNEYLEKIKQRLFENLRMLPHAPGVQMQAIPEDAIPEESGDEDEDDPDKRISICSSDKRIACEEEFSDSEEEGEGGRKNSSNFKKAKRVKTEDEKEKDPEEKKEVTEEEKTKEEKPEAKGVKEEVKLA

IC50 ([1]; human recombinant HDAC1 FLAG-tag His-tag, triplicate) [nM]	EC50 [2] [nM]	IC50 ([3]; human recombinant HDAC6 GST-tag, triplicate) [nM]	Selectivity Factor ([3]; ratio of the IC50 values for HDAC1 and HDAC6)	Structure (SMILES)	Percentage HDAC1 activity ([1]; 0.1 uM inhibitor) [%]	Percentage HDAC1 activity ([1]; 1 uM inhibitor) [%]	Percentage HDAC6 activity ([3]; 0.1 uM inhibitor) [%]	Percentage HDAC6 activity ([3]; 1 uM inhibitor) [%]
105 ± 15	3000 ± 600	41 ± 2	2.6	O=C(CCCCCCC(=O)Nc1cc2cccnc2c2ncccc12)NO [L^1]	44 ± 7	6 ± 13	17 ± 3	1.5 ± 1
				O=C(CCCCCCC(=O)Nc1ccccc1)NO [SAHA, suberanilohydroxamic acid, reference compound]	70 ± 15	12 ± 7	22 ± 1	4 ± 2
